Measurements taken from patent US20140135327A1, “N- (2 -AMINOPHENYL) BENZAMIDE DERIVATIVES AS HISTONE DEACETYLASE INHIBITORS” (CANCER RESEARCH TECHNOLOGY LIMITED, priority 2011, published 2014).

Legend:
Type in all cases: biochemical
HDAC 6 = target: T1, HDAC 6 (Homo sapiens, UniProt Q9UBN7); test: Caliper HDAC inhibitor profiling assay (microfluidic mobility-shift), HDAC 6; details: 1 hour at room temperature, read-out: IC50 (μM) HDAC6
T1 sequence (Q9UBN7 1-1215): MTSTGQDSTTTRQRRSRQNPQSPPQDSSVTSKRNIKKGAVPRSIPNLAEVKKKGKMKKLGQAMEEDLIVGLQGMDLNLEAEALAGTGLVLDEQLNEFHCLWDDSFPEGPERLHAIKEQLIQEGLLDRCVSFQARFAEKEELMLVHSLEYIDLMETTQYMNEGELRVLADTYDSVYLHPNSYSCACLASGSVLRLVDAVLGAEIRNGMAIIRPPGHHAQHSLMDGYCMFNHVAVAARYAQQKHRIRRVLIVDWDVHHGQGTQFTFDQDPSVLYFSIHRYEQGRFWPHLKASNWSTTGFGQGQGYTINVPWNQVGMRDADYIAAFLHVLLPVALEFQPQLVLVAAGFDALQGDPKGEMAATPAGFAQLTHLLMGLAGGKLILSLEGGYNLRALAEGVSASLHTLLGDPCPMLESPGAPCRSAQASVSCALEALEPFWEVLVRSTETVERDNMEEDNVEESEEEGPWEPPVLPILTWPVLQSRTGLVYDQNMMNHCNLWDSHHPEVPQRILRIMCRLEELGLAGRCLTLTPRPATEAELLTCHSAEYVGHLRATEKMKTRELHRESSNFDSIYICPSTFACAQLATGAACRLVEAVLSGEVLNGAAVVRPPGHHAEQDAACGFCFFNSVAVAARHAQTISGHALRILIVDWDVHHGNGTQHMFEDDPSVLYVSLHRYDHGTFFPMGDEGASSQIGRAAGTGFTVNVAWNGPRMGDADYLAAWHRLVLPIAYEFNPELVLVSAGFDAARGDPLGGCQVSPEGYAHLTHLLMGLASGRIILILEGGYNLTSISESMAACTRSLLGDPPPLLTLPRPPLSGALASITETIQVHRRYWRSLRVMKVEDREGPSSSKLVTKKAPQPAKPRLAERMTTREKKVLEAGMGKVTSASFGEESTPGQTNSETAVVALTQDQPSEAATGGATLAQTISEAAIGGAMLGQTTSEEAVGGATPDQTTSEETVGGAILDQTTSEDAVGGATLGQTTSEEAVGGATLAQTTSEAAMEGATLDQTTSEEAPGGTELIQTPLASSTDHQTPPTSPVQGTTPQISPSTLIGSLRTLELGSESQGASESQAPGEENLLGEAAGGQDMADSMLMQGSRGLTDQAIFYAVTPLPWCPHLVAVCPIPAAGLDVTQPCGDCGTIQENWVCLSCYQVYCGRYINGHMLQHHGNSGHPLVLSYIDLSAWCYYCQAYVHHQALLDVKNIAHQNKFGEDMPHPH
Experimental: The activity of the compounds of the invention against HDAC 3 (Class I) and HDAC 6 (Class II) can be determined using the Caliper Life Sciences HDAC inhibitor profiling assay, which utilises microfluidic mobility-shift detection.
Reaction buffer: 25 mM Tris/Cl, pH 8.0, 137 mM NaCl, 2.7 mM KCl, 1 mM MgCl2, 0.1 mg/ml BSA (fatty acid free).
Stop Buffer: 100 mM HEPES, pH 7.5, 10 mM EDTA, 0.04% Brij-35, 0.25% CR-3, and 2.5 μM Trichostatin A.
Stopped reactions were assembled in microtiter plate wells by adding 1 μL of the inhibitor compound in DMSO, 15 μL 2× Enzyme, and 15 μL 2× peptide. The reactions were incubated for 1 hour at room temperature, stopped with the addition of 45 μL Stop Solution, and read on the LabChip EZ Reader®. The curves were fit with sigmoidal dose response algorithm using GraphPad Prism.

HDAC 1 = target: T2, HDAC 1 (Homo sapiens, UniProt Q13547); test: Fluorescence-based HDAC isoform assay with electrophoretic separation, HDAC 1; details: isolated 6×His-tagged isoform, 1 μM FAM-labeled acetylated peptide, 17 h at 25° C.
T2 construct: HDACs 1, 2, 3, 6, and 8 were expressed as full length fusion proteins; 6xHis; made in house; host or cells: Sf9 cells (baculovirus)
T2 sequence (Q13547 whole entry, species assumed, the tested form may be a part, canonical isoform): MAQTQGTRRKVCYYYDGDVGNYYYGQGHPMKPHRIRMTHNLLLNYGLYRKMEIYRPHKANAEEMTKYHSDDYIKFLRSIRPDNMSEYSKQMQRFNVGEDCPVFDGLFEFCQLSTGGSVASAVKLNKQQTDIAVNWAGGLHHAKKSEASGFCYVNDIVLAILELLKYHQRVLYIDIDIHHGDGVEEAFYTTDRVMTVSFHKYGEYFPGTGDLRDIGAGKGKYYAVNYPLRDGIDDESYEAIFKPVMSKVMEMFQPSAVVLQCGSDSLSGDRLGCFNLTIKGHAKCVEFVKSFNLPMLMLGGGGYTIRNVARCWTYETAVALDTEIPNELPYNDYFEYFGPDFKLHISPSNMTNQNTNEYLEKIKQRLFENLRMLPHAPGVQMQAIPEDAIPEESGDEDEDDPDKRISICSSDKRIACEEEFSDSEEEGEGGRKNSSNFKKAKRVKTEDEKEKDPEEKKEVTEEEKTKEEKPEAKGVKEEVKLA
Experimental: (§1) The inhibitory effects of the compounds of Examples 7 and 9 above on HDAC activity were determined using a fluorescence-based assay with electrophoretic separation of substrate and product carried out using a microfluidic system followed by quantitation of fluorescence intensity in the substrate and product peaks.
(§2) The assays were performed using isolated HDAC isoforms that had been expressed as 6×His-tagged fusion proteins in a baculovirus expression system in Sf9 cells. HDACs 1, 2, 3, 6, and 8 were expressed as full length fusion proteins. For HDAC-4 and 7 only catalytic domains were expressed (HDAC-4 CAT and HDAC-7 CAT). The HDAC10 fusion protein was expressed as a carboxy-terminal deletion of 38 amino acids (residues 632-669). HDAC3 was coexpressed with a fragment of the SMRT gene (residues 395-489) to generate enzymatically active protein. Purified proteins were incubated with 1 μM carboxyfluorescein (FAM)-labeled acetylated peptide substrate and test compound for 17 h at 25° C. in HDAC assay buffer containing 100 mM HEPES (pH 7.5), 25 mM KCl, 0.1% BSA, and 0.01% Triton X-100. […] Substrate and product were separated electrophoretically using a Caliper LabChip 3000 system with blue laser excitation and green fluorescence detection (CCD2). The fluorescence intensity in the substrate and product peaks was determined using the Well Analyzer software on the Caliper system. […]

HDAC 3 = HDAC 3 (Homo sapiens, UniProt O15379); test: Fluorescence-based HDAC isoform assay with electrophoretic separation, HDAC 3 (coexpressed with SMRT fragment); details: HDAC3 coexpressed with SMRT fragment (residues 395-489), 1 μM FAM-labeled acetylated peptide, 17 h at 25° C.
HDAC 3, sequence (O15379 whole entry, species assumed, the tested form may be a part, canonical isoform): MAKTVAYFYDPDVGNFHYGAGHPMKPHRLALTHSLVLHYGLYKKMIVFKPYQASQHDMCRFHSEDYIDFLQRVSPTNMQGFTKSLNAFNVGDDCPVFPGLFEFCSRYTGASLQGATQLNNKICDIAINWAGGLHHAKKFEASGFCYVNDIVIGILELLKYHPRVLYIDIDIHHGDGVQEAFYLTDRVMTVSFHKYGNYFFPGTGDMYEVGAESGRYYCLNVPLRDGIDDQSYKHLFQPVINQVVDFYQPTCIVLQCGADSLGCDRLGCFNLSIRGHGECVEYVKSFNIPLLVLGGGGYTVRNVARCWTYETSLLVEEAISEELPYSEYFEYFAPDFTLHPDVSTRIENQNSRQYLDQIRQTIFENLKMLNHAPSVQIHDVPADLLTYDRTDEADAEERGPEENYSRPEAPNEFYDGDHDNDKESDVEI
HDAC 3, sequence (Q9Y618 395-489 partner limits assumed, species assumed): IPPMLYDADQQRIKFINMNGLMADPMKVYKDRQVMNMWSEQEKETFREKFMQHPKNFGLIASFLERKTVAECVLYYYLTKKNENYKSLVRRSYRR
Experimental: as §1, §2

Row | IC50 (HDAC 6) [µM] | IC50 (HDAC 1) [µM] | IC50 (HDAC 3) [µM] | SMILES
1 | > 10 | 8.7 | 0.0287 | C=C1CN(Cc2ccc(C(=O)Nc3ccccc3N)cc2)C(=O)c2ccccc21 [Example 7, N-(2-Aminophenyl)-4-[(4-methylene-1-oxo-3,4-dihydroisoquino-2(1H)-yl)methyl]benzamide]
2 | > 10 | > 30 | 0.797 | C=C1CN(Cc2ccc(C(=O)Nc3ccccc3N)cc2)C(CC(=O)O)c2ccccc21 (stereo not drawn) [Example 9, [2-(4-{[(2-Aminophenyl)amino]carbonyl}benzyl)-4-methylene-1,2,3,4-tetra hydroisoquinolin-1-yl]acetic acid]
